In US6908930B2, “4-substituted 7-AZA-indolin-2-ones and their use as protein kinase inhibitors” (Sugen, Inc., priority 1999, dated 2005):
Structures can show the parent of a compound that is named as a salt.

Target: T1, human cdk2/cyclin A (Homo sapiens, UniProt P24941)
T1 construct: made in house; host or cells: Sf9 (baculovirus)
Experiment: Assay for inhibition of CDK2 (Scintillation Proximity Assay)
Type: biochemical
Details: read-out: cdk2SPA IC50
Procedure: Using the following reagents, supplies, and method, the ability of compounds of the invention to assay for modulation of the in vitro kinase activity of human cdk2/cyclin A in a Scintillation Proximity Assay (SPA).
Activated cdk2/cyclin A enzyme complex is purified from Sf9 cells and stored at −80° C. in 200 μL aliquots. Human cdk2/cyclin A protein is expressed, activated, and purified from baculovirus infected sf9 cells as described previously. (J. Mol. Biol., 230:1317-1319 (1993)).
The substrate is a biotinylated peptide substrate (Debtide), which is a peptide biotin-X-[…] dissolved in dH2O at a concentration of 5 mg/mL and stored at −80° C. in 100 μL aliquots.
The Peptide/ATP mixture is prepared by mixing 9.979 mL dH2O with 0.00125 mL of cold 10 mM ATP, 0.010 mL of 5 mg/mL Debtide, and 0.010 mL of 10 μCi/mL γ^33P ATP.
A 2.5× kinase buffer is prepared by mixing 8.85 mL of dH2O with 0.625 mL of 1M Tris pH 7.4, 0.25 mL of 1M MgCl2, 0.25 mL of 10% NP40, and 0.025 mL of 1M DTT. Ten milliliters of kinase buffer mix is sufficient for about 4.5 assay plates.
Prepare solutions of inhibitors at 5× the desired final concentration in 5% DMSO. Add 10 μL to each well. For negative controls, add 10 μL 5% DMSO.
Dilute 5 μL of cdk2/cyclin A solution into 2.1 mL 2× kinase buffer (per plate) and add 20 μL enzyme per well. This can be added using a hand pipette or by using the Titertek Multidrop. […] For each freeze/thaw cycle, double the amount of enzyme used in the assay. Also, the enzyme should be thawed quickly (e.g., in the palm of one's hand) and be kept on ice prior to use in the assay. Add 10 μL of 0.5 M EDTA to the negative control wells.
To start kinase reaction, add 20 μL of peptide/ATP mixture using either a hand pipette or the Titertek Multidrop. Let sit on benchtop behind shield for one hour. No shaking is necessary and is not recommended when using Flexiplates (plates are not easy to add/remove from shaker).
Add 200 μL stop solution per well using either the Titertek Multidrop or hand pipette. Let stand at least 10 minutes. Spin plate approximately 2300 rpm for 3-5 minutes. Count plate on Trilux reader.

| SMILES | IC50 [nM] |
| --- | --- |
| Cc1cc(C(=O)NCCN2CCOCC2)[nH]c1C=C1C(=O)Nc2nccc(Nc3ccc(F)c(Cl)c3)c21 [Formula 3, 5-[4-(3-CHLORO-4-FLUORO-PHENYLAMINO)-2-OXO-1,2-DIHYDRO-PYRROLO[2,3-B]PYRIDIN-3-YLIDENEMETHYL]-4-METHYL-1H-PYRROLE-2-CARBOXYLIC ACID (2-MORPHOLIN-4-YL-ETHYL)-AMIDE] | > 10000 |
| Cc1cc(C(=O)NCCN2CCOCC2)[nH]c1C=C1C(=O)Nc2ncnc(Nc3ccc(F)c(Cl)c3)c21 [Formula 4, 5-[4-(3-CHLORO-4-FLUORO-PHENYLAMINO)-6-OXO-6,7-DIHYDRO-PYRROLO[2,3-D]PYRIMIDIN-5-YLIDENEMETHYL]-4-METHYL-1H-PYRROLE-2-CARBOXYLIC ACID (2-MORPHOLIN-4-YL-ETHYL)-AMIDE HYDROCHLORIDE] | > 10000 |
| Cc1nc[nH]c1C=C1C(=O)Nc2ncnc(Nc3ccc(F)c(Cl)c3)c21 [Formula 8] | 2620 |

The next molecules have a lower IC50 than those just listed; values first:

| IC50 [nM] | SMILES |
| --- | --- |
| 40 | Cc1nc[nH]c1C=C1C(=O)Nc2ncnc(N3CCOCC3)c21 [Formula 14] |
| 10 | Cc1nc[nH]c1C=C1C(=O)Nc2ncnc(N3CCN(C)CC3)c21 [Formula 11] |
